US20040013730A1, “Non-hormonal vaginal contraceptive” (priority 2003, published 2004)

Assays:
human sperm = experiment: Efficacy of metal salts, albumin and dextran on motility of human sperm in vitro; settings: for concentration at which spermiostatic (motility of sperm arrested): human sperm in vitro
human cervical mucus = experiment: Cervical mucus score (WHO): viscosity, ferning, spinnbarkeit, cellularity, pH; settings: for TOTAL cervical mucus score: pH not included
[1] = ascorbic acid 0.31%, fourth sample (undated)
[2] = ascorbic acid 0.31%, sample Jun. 22, 2000
[3] = ascorbic acid 0.31%, sample Jun. 23, 2000
[4] = ascorbic acid 0.31%, third sample (undated)
[5] = ascorbic acid 0.63%, fourth sample (undated)
[6] = ascorbic acid 0.63%, sample Jun. 22, 2000
[7] = ascorbic acid 0.63%, sample Jun. 23, 2000
[8] = ascorbic acid 0.63%, third sample (undated)
[9] = ascorbic acid 1%, fourth sample (undated)
[10] = ascorbic acid 1%, sample Jun. 22, 2000
[11] = ascorbic acid 1%, sample Jun. 23, 2000
[12] = ascorbic acid 1%, third sample (undated)
[13] = ascorbic acid 1.25%, fourth sample (undated)
[14] = ascorbic acid 1.25%, sample Jun. 22, 2000
[15] = ascorbic acid 1.25%, sample Jun. 23, 2000
[16] = ascorbic acid 1.25%, third sample (undated)
[17] = ascorbic acid 2.50%, fourth sample (undated)
[18] = ascorbic acid 2.50%, sample Jun. 22, 2000
[19] = ascorbic acid 2.50%, sample Jun. 23, 2000
[20] = ascorbic acid 2.50%, third sample (undated)
[21] = ascorbic acid 5%, fourth sample (undated)
[22] = ascorbic acid 5%, sample Jun. 22, 2000
[23] = ascorbic acid 5%, sample Jun. 23, 2000
[24] = ascorbic acid 5%, third sample (undated)
[25] = ascorbic acid 10%, fourth sample (undated)
[26] = ascorbic acid 10%, sample Jun. 22, 2000
[27] = ascorbic acid 10%, sample Jun. 23, 2000
[28] = ascorbic acid 10%, third sample (undated)

ferrous gluconate
immobilization of sperm (human sperm; 25 mM solution): 97.4%
immobilization of sperm (human sperm; 37.5 mM solution): completely immobilized all the sperm
additional spermiostatic effect (human sperm; 2.5% dextran added to 12.5-mM ferrous gluconate solution): no additional spermiostatic effect
enhancement of the spermiostatic effect (human sperm; 2.5% dextran and 5% albumin added to 12.5 mM ferrous gluconate): no enhancement of the spermiostatic effect
concentration at which spermiostatic (motility of sperm arrested) (human sperm): 12.5 mM

O=S(=O)([O-])[O-].[Cu+2] [copper sulfate]
immobilization of sperm (human sperm; 25 mM solution): 93.3%
immobilization of sperm (human sperm; 37.5 mM solution): completely immobilized all the sperm
additional spermiostatic effect (human sperm; 2.5% dextran added to 6.5-mM copper sulfate solution): no additional spermiostatic effect
concentration at which spermiostatic (motility of sperm arrested) (human sperm): 6.25 mM

[Cl-].[Cl-].[Mg+2] [magnesium chloride]
concentration at which spermiostatic (motility of sperm arrested) (human sperm): 35 mM

O=C1O[C@H]([C@@H](O)CO)C(O)=C1O [ascorbic acid, L-ascorbic acid]
overall viscosity of the mucus (human cervical mucus; L-ascorbic acid from 0.31% to a range of 1-2.5%): increased in direct relationship with increasing concentrations
Cellularity (cervical mucus score) (human cervical mucus; [1]): 0
Ferning (cervical mucus score) (human cervical mucus; [1]): 0
Spinnbarkiet (cervical mucus score) (human cervical mucus; [1]): 1 ± .35
Viscosity (cervical mucus score) (human cervical mucus; [1]): 2 ± .79
TOTAL cervical mucus score (human cervical mucus; [1]): 3.2
Cellularity (cervical mucus score) (human cervical mucus; [2]): 2 ± .86
Ferning (cervical mucus score) (human cervical mucus; [2]): 2 ± .86
Spinnbarkiet (cervical mucus score) (human cervical mucus; [2]): 0 (less than 1 cm)
Viscosity (cervical mucus score) (human cervical mucus; [2]): 3 ± .79
TOTAL cervical mucus score (human cervical mucus; [2]): 7.3
Cellularity (cervical mucus score) (human cervical mucus; [3]): 2 ± .58
Ferning (cervical mucus score) (human cervical mucus; [3]): 0
Spinnbarkeit (cervical mucus score) (human cervical mucus; [3]): 1 ± .35
Viscosity (cervical mucus score) (human cervical mucus; [3]): 3 ± .79
TOTAL cervical mucus score (human cervical mucus; [3]): 6.2
Cellularity (cervical mucus score) (human cervical mucus; [4]): 1 ± .58
Ferning (cervical mucus score) (human cervical mucus; [4]): 0
Spinnbarkeit (cervical mucus score) (human cervical mucus; [4]): 0 (less than 1 cm)
Viscosity (cervical mucus score) (human cervical mucus; [4]): 2 ± .79
TOTAL cervical mucus score (human cervical mucus; [4]): 3.15
Cellularity (cervical mucus score) (human cervical mucus; [5]): 0
Ferning (cervical mucus score) (human cervical mucus; [5]): 3 ± .86
Spinnbarkiet (cervical mucus score) (human cervical mucus; [5]): 1 ± .49
Viscosity (cervical mucus score) (human cervical mucus; [5]): 3 ± .81
TOTAL cervical mucus score (human cervical mucus; [5]): 7.2
Cellularity (cervical mucus score) (human cervical mucus; [6]): 0
Ferning (cervical mucus score) (human cervical mucus; [6]): 0
Spinnbarkiet (cervical mucus score) (human cervical mucus; [6]): 1 ± .49
Viscosity (cervical mucus score) (human cervical mucus; [6]): 1 ± .81
TOTAL cervical mucus score (human cervical mucus; [6]): 2.3
Cellularity (cervical mucus score) (human cervical mucus; [7]): 0
Ferning (cervical mucus score) (human cervical mucus; [7]): 0
Spinnbarkeit (cervical mucus score) (human cervical mucus; [7]): 1 ± .49
Viscosity (cervical mucus score) (human cervical mucus; [7]): 2 ± .81
TOTAL cervical mucus score (human cervical mucus; [7]): 3.2
Cellularity (cervical mucus score) (human cervical mucus; [8]): 1 ± .61
Ferning (cervical mucus score) (human cervical mucus; [8]): 0
Spinnbarkeit (cervical mucus score) (human cervical mucus; [8]): 1 ± .49
Viscosity (cervical mucus score) (human cervical mucus; [8]): 1 ± .81
TOTAL cervical mucus score (human cervical mucus; [8]): 3.15
Cellularity (cervical mucus score) (human cervical mucus; [9]): 0
Ferning (cervical mucus score) (human cervical mucus; [9]): 3 ± .82
Spinnbarkiet (cervical mucus score) (human cervical mucus; [9]): 1 ± .51
Viscosity (cervical mucus score) (human cervical mucus; [9]): 2 ± .75
TOTAL cervical mucus score (human cervical mucus; [9]): 6.2
Cellularity (cervical mucus score) (human cervical mucus; [10]): 2 ± .82
Ferning (cervical mucus score) (human cervical mucus; [10]): 2 ± .82
Spinnbarkiet (cervical mucus score) (human cervical mucus; [10]): 1 ± .51
Viscosity (cervical mucus score) (human cervical mucus; [10]): 1 ± .75
TOTAL cervical mucus score (human cervical mucus; [10]): 6.3
Cellularity (cervical mucus score) (human cervical mucus; [11]): 0
Ferning (cervical mucus score) (human cervical mucus; [11]): 0
Spinnbarkeit (cervical mucus score) (human cervical mucus; [11]): 1 ± .51
Viscosity (cervical mucus score) (human cervical mucus; [11]): 2 ± .75
TOTAL cervical mucus score (human cervical mucus; [11]): 3.2
Cellularity (cervical mucus score) (human cervical mucus; [12]): 0
Ferning (cervical mucus score) (human cervical mucus; [12]): 0
Spinnbarkeit (cervical mucus score) (human cervical mucus; [12]): 1 ± .51
Viscosity (cervical mucus score) (human cervical mucus; [12]): 2 ± .75
TOTAL cervical mucus score (human cervical mucus; [12]): 3.15
Cellularity (cervical mucus score) (human cervical mucus; [13]): 1 ± .53
Ferning (cervical mucus score) (human cervical mucus; [13]): 2 ± 1.13
Spinnbarkiet (cervical mucus score) (human cervical mucus; [13]): 1 ± 51
Viscosity (cervical mucus score) (human cervical mucus; [13]): 3 ± .95
TOTAL cervical mucus score (human cervical mucus; [13]): 7.2
Cellularity (cervical mucus score) (human cervical mucus; [14]): 0
Ferning (cervical mucus score) (human cervical mucus; [14]): 0
Spinnbarkiet (cervical mucus score) (human cervical mucus; [14]): 1 ± .51
Viscosity (cervical mucus score) (human cervical mucus; [14]): 1 ± .95
TOTAL cervical mucus score (human cervical mucus; [14]): 2.3
Cellularity (cervical mucus score) (human cervical mucus; [15]): 0
Ferning (cervical mucus score) (human cervical mucus; [15]): 0
Spinnbarkeit (cervical mucus score) (human cervical mucus; [15]): 1 ± .51
Viscosity (cervical mucus score) (human cervical mucus; [15]): 3 ± .95
TOTAL cervical mucus score (human cervical mucus; [15]): 4.2
Cellularity (cervical mucus score) (human cervical mucus; [16]): 1 ± .53
Ferning (cervical mucus score) (human cervical mucus; [16]): 0
Spinnbarkeit (cervical mucus score) (human cervical mucus; [16]): 0 (less than 1 cm)
Viscosity (cervical mucus score) (human cervical mucus; [16]): 1 ± .95
TOTAL cervical mucus score (human cervical mucus; [16]): 2.15
Cellularity (cervical mucus score) (human cervical mucus; [17]): 1 ± .49
Ferning (cervical mucus score) (human cervical mucus; [17]): 1 ± .82
Spinnbarkiet (cervical mucus score) (human cervical mucus; [17]): 1 ± .14
Viscosity (cervical mucus score) (human cervical mucus; [17]): 2 ± .61
TOTAL cervical mucus score (human cervical mucus; [17]): 5.2
Cellularity (cervical mucus score) (human cervical mucus; [18]): 0
Ferning (cervical mucus score) (human cervical mucus; [18]): 0
Spinnbarkiet (cervical mucus score) (human cervical mucus; [18]): 1 ± .14
Viscosity (cervical mucus score) (human cervical mucus; [18]): 2 ± .61
TOTAL cervical mucus score (human cervical mucus; [18]): 3.3
Cellularity (cervical mucus score) (human cervical mucus; [19]): 1 ± .49
Ferning (cervical mucus score) (human cervical mucus; [19]): 0
Spinnbarkeit (cervical mucus score) (human cervical mucus; [19]): 1 ± .14
Viscosity (cervical mucus score) (human cervical mucus; [19]): 0
TOTAL cervical mucus score (human cervical mucus; [19]): 2.2
Cellularity (cervical mucus score) (human cervical mucus; [20]): 1 ± .49
Ferning (cervical mucus score) (human cervical mucus; [20]): 0
Spinnbarkeit (cervical mucus score) (human cervical mucus; [20]): 0 (less than 1 cm)
Viscosity (cervical mucus score) (human cervical mucus; [20]): 1 ± .61
TOTAL cervical mucus score (human cervical mucus; [20]): 2.15
Cellularity (cervical mucus score) (human cervical mucus; [21]): 1 ± .66
Ferning (cervical mucus score) (human cervical mucus; [21]): 0
Spinnbarkiet (cervical mucus score) (human cervical mucus; [21]): 1 ± .35
Viscosity (cervical mucus score) (human cervical mucus; [21]): 2 ± .52
TOTAL cervical mucus score (human cervical mucus; [21]): 4.2
Cellularity (cervical mucus score) (human cervical mucus; [22]): 0
Ferning (cervical mucus score) (human cervical mucus; [22]): 0
Spinnbarkiet (cervical mucus score) (human cervical mucus; [22]): 1 ± .35
Viscosity (cervical mucus score) (human cervical mucus; [22]): 2 ± .52
TOTAL cervical mucus score (human cervical mucus; [22]): 3.3
Cellularity (cervical mucus score) (human cervical mucus; [23]): 0
Ferning (cervical mucus score) (human cervical mucus; [23]): 0
Spinnbarkeit (cervical mucus score) (human cervical mucus; [23]): 0 (less than 1 cm)
Viscosity (cervical mucus score) (human cervical mucus; [23]): 2 ± .52
TOTAL cervical mucus score (human cervical mucus; [23]): 2.2
Cellularity (cervical mucus score) (human cervical mucus; [24]): 0
Ferning (cervical mucus score) (human cervical mucus; [24]): 0
Spinnbarkeit (cervical mucus score) (human cervical mucus; [24]): 1 ± .35
Viscosity (cervical mucus score) (human cervical mucus; [24]): 2 ± .25
TOTAL cervical mucus score (human cervical mucus; [24]): 2.15
Cellularity (cervical mucus score) (human cervical mucus; [25]): 0
Ferning (cervical mucus score) (human cervical mucus; [25]): 0
Spinnbarkiet (cervical mucus score) (human cervical mucus; [25]): 0 (less than 1 cm)
Viscosity (cervical mucus score) (human cervical mucus; [25]): 0
TOTAL cervical mucus score (human cervical mucus; [25]): 0.2
Cellularity (cervical mucus score) (human cervical mucus; [26]): 1 ± .53
Ferning (cervical mucus score) (human cervical mucus; [26]): 1 ± .53
Spinnbarkiet (cervical mucus score) (human cervical mucus; [26]): 1 ± .26
Viscosity (cervical mucus score) (human cervical mucus; [26]): 1 ± .69
TOTAL cervical mucus score (human cervical mucus; [26]): 4.3
Cellularity (cervical mucus score) (human cervical mucus; [27]): 1 ± .51
Ferning (cervical mucus score) (human cervical mucus; [27]): 1 ± .53
Spinnbarkeit (cervical mucus score) (human cervical mucus; [27]): 1 ± .26
Viscosity (cervical mucus score) (human cervical mucus; [27]): 2 ± .69
TOTAL cervical mucus score (human cervical mucus; [27]): 5.2
Cellularity (cervical mucus score) (human cervical mucus; [28]): 1 ± .51
Ferning (cervical mucus score) (human cervical mucus; [28]): 0
Spinnbarkeit (cervical mucus score) (human cervical mucus; [28]): 1 ± .26
Viscosity (cervical mucus score) (human cervical mucus; [28]): 1 ± .69
TOTAL cervical mucus score (human cervical mucus; [28]): 3.15
